Test results published in US20230346670A1, “Prebiotic Oral Care Compositions and Methods” (Colgate-Palmolive Company, priority 2020, published 2023).

Legend:
Format in all cases: cell-based
[1] = tested on: P. intermedia virulence genes; assay: Virulence gene expression in multi-species biofilm (SYBR RT-qPCR); conditions: relative to control = 1
Method: (§1) Biofilms are grown vertically on Calcium Deficient Hydroxyapatite (CAD-HA) disks (Hitemco Medical, Old Bethpage, USA) using the Amsterdam Active Adhesion model. Biofilms are allowed to establish during 24 h (37° C., 170 rpm) under microaerophilic conditions (6% O2, 7% CO2, 7% H2, 80% N2). After this 24 h, disks are rinsed 3 times a day for 3 minutes (RT, 250 rpm), for 3 consecutive days, by transferring the lid containing the disks to a new 24-well plate containing 2 mL/well of the appropriate substrate solution. As a negative control, PBS (pH 5.7) without substrate supplementation is used.
The virulence of the substrate-treated multi-species biofilms are evaluated by analyzing the relative expression of 33 genes that are recognized as being related to some form of virulence and from 4 periodontal pathogens.
Expression of bacterial virulence genes is analyzed through SYBR RT-qPCR and normalized for bacterial housekeeping gene expression. […] These effects are illustrated in Tables 6a and 6b:
Note, for Table 6d, fold changes in virulence gene expression are determined relatively to the control condition through the 2^^-ΔΔCt method and are shown as the geometric mean (C.I.) (n = 3) of the 2^^-ΔΔCt values. All substrates are dissolved in PBS at a concentration of 1 M (upper part) or 1%(w/v) (lower part). Values between 0 and 1 represent relative downregulation, values >1 represent relative upregulation. […] NADG: N-acetyl-D-glucosamine; C.I.: 95% confidence interval.

A. viscosus = assay: Multi-species biofilm composition, absolute abundance (Geq/mL); conditions: repeated rinsing
Method: as §1
(§2) N-acetyl-D-glucosamine (NADG), α-D-lactose, D-(+)-trehalose and D-(+)-raffinose are selected to determine their effects on multi-species biofilm composition. […] decrease in absolute numbers in at least four of the pathogenic bacterial species tested in the assay, in comparison to the control, the results of which are described in Table 1 below. Note, NADG decreased absolute numbers of S. sobrinus. Absolute abundances of bacterial species are shown as mean ± SD (n = 3) logarithmic values of the genome equivalents per millilitre (log(Geq/mL)).

S. mutans = assay: as above; conditions: repeated rinsing
Method: as §1, §2

S. salivarius = assay: as above; conditions: repeated rinsing
Method: as §1, §2

S. sanguinis = assay: as above; conditions: repeated rinsing
Method: as §1, §2

V. parvula = assay: as above; conditions: for absolute abundance of V. parvula (VP), mean ± SD log (Geq/mL): repeated rinsing
Method: as §1, §2

F. nucleatum = assay: as above; conditions: repeated rinsing
Method: as §1, §2

multi-species biofilms = assay: Organic acid levels in supernatant of multi-species biofilms (ion chromatography); conditions: >0 production, <0 consumption, n = 3
Method: as §1
Levels of organic acids in the filter sterilized supernatant of the multi-species biofilms are measured using a 761 Compact Ion Chromatograph (Metrhohm, Switzerland) with a Metrosep Organic acids Guard/4.6 guard column. The supernatants from the substrate-treated multi-species biofilms are analyzed to gain more insight into the influence of the substrates on organic acid consumption/production.

[2] = tested on: human oral keratinocytes (HOK-18A); assay: Inflammatory mediator gene expression in keratinocytes exposed to substrate-treated biofilms (SYBR RT-qPCR); conditions: for fold change in IL-1β gene expression, geometric mean (C.I.) / fold change in IL-6 gene expression, geometric mean (C.I.) / fold change in IL-8 gene expression, geometric mean (C.I.) / fold change in MMP-8 gene expression, geometric mean (C.I.) / fold change in TNF-α gene expression, geometric mean (C.I.): relative to control, n = 3
Method: Cultures of immortalized human oral keratinocytes (HOK-18A) are grown. […] The IL-8 levels in the cellular supernatant are determined as well. RNA is converted to cDNA and relative expression of inflammatory mediator genes is determined as described above with respect to the cellular housekeeping gene β-actin.
In HOKs exposed to substrate-treated (substrate concentrations of […]) multi-species biofilms, there are mostly decreases in inflammatory mediator gene expression as measured via SYBR RT-qPCR, the results of which are detailed in Table 7:
Fold changes in inflammatory mediator gene expression from human oral keratinocytes (HOK-18A) exposed to substrate-treated multi-species biofilms are determined relatively to the control through the 2^^-ΔΔCt method and are shown as the geometric mean (C.I.) (n = 3) of the 2^^-ΔΔCt values. All substrates are dissolved in PBS at a concentration of 1 M (upper part) or 1%(w/v) (lower part). Values between 0 and 1 represent relative downregulation, values >1 represent relative upregulation.

[3] = lower part of Table 6d, head prints 1 M (lower part 1%(w/v))
[4] = upper part of Table 6d, substrate 1 M, n = 3
[5] = substrate 1 M, listed as α-D-lactose
[6] = HOK-18A exposed to biofilms treated with substrate 1% (w/v)
[7] = HOK-18A exposed to biofilms treated with substrate 1 M

OC[C@H]1O[C@@H](O[C@H]2[C@H](O)[C@@H](O)[C@@H](O)O[C@@H]2CO)[C@H](O)[C@@H](O)[C@H]1O [D-lactose, α-D-lactose]
fold change in DnaJ expression, geometric mean (95% C.I.) [1, 3]: 0.29 (0.18-0.47)^∗ fold
fold change in DnaK expression, geometric mean (95% C.I.) [1, 3]: 1.16 (0.55-2.44) fold
fold change in ECF expression, geometric mean (95% C.I.) [1, 3]: 0.26 (0.12-0.58)^∗ fold
fold change in GroES expression, geometric mean (95% C.I.) [1, 3]: 0.91 (0.41-2.03) fold
fold change in HtpG expression, geometric mean (95% C.I.) [1, 3]: 0.40 (0.15-1.07)^∗ fold
fold change in KpsD expression, geometric mean (95% C.I.) [1, 3]: 0.72 (0.39-1.35) fold
fold change in adpc expression, geometric mean (95% C.I.) [1, 3]: 0.41 (0.30-0.55) fold
fold change in clpB expression, geometric mean (95% C.I.) [1, 3]: 0.85 (0.23-3.13) fold
fold change in inpA expression, geometric mean (95% C.I.) [1, 3]: 0.52 (0.41-0.66)^∗ fold
fold change in phg expression, geometric mean (95% C.I.) [1, 3]: 0.39 (0.19-0.77)^∗ fold
fold change in DnaJ expression, geometric mean (95% C.I.) [1, 4]: 0.25 (0.05-1.25)^∗ fold
fold change in DnaK expression, geometric mean (95% C.I.) [1, 4]: 0.34 (0.28-0.42)^∗ fold
fold change in ECF expression, geometric mean (95% C.I.) [1, 4]: 1.72 (0.56-5.25) fold
fold change in GroES expression, geometric mean (95% C.I.) [1, 4]: 0.29 (0.09-0.91)^∗ fold
fold change in HtpG expression, geometric mean (95% C.I.) [1, 4]: 0.19 (0.12-0.31)^∗ fold
fold change in KpsD expression, geometric mean (95% C.I.) [1, 4]: 0.62 (0.21-1.87) fold
fold change in adpc expression, geometric mean (95% C.I.) [1, 4]: 0.30 (0.23-0.39)^∗ fold
fold change in clpB expression, geometric mean (95% C.I.) [1, 4]: 0.38 (0.08-1.75)^∗ fold
fold change in inpA expression, geometric mean (95% C.I.) [1, 4]: 0.47 (0.27-0.82)^∗ fold
fold change in phg expression, geometric mean (95% C.I.) [1, 4]: 0.12 (0.08-0.18)^∗ fold
absolute abundance of A. viscosus (Av), mean ± SD log (Geq/mL) (A. viscosus; substrate 1% (w/v)): 7.89 ± 0.13 log (Geq/mL)
absolute abundance of A. viscosus (Av), mean ± SD log (Geq/mL) (A. viscosus; substrate 1 M in PBS, n = 3): 6.78 ± 0.41 log (Geq/mL)
absolute abundance of S. mutans, mean ± SD log (Geq/mL) (S. mutans; substrate 1% (w/v)): 7.48 ± 0.14 log (Geq/mL)
absolute abundance of S. mutans, mean ± SD log (Geq/mL) (S. mutans; substrate 1 M in PBS, n = 3): 8.00 ± 0.56 log (Geq/mL)
absolute abundance of S. salivarius, mean ± SD log (Geq/mL) (S. salivarius; substrate 1% (w/v)): 2.65 ± 0.00 log (Geq/mL)
absolute abundance of S. salivarius, mean ± SD log (Geq/mL) (S. salivarius; substrate 1 M in PBS, n = 3): 6.95 ± 0.14^∗ log (Geq/mL)
absolute abundance of S. sanguinis, mean ± SD log (Geq/mL) (S. sanguinis; substrate 1% (w/v)): 8.99 ± 0.54 log (Geq/mL)
absolute abundance of S. sanguinis, mean ± SD log (Geq/mL) (S. sanguinis; substrate 1 M in PBS, n = 3): 5.80 ± 1.09 log (Geq/mL)
absolute abundance of V. parvula (VP), mean ± SD log (Geq/mL) (V. parvula; substrate 1% (w/v)): 9.92 ± 0.20 log (Geq/mL)
reduction of V. parvula numbers in comparison to the control (V. parvula; substrate 1 M): ~ 0.7 log(Geq/mL)
absolute abundance of V. parvula (VP), mean ± SD log (Geq/mL) (V. parvula; substrate 1 M in PBS, n = 3): 9.45 ± 0.15^∗ log (Geq/mL)
absolute abundance of F. nucleatum (Fn), mean ± SD log (Geq/mL) (F. nucleatum; substrate 1% (w/v)): 9.39 ± 0.42 log (Geq/mL)
absolute abundance of F. nucleatum (Fn), mean ± SD log (Geq/mL) (F. nucleatum; substrate 1 M in PBS, n = 3): 5.49 ± 0.46^∗ log (Geq/mL)
acetate level in biofilm supernatant, mean ± SD (multi-species biofilms; substrate 1% (w/v)): 367 ± 33 mg/L
butyrate level in biofilm supernatant, mean ± SD (multi-species biofilms; substrate 1% (w/v)): 2061 ± 121 mg/L
formate level in biofilm supernatant, mean ± SD (multi-species biofilms; substrate 1% (w/v)): 3929 ± 253 mg/L
lactate level in biofilm supernatant, mean ± SD (multi-species biofilms; substrate 1% (w/v)): -125 ± 0 mg/L
propionate level in biofilm supernatant, mean ± SD (multi-species biofilms; substrate 1% (w/v)): 2140 ± 141 mg/L
acetate level in biofilm supernatant, mean ± SD (multi-species biofilms; substrate 1 M): 881 ± 73^∗ mg/L
butyrate level in biofilm supernatant, mean ± SD (multi-species biofilms; substrate 1 M): 0±0^∗ mg/L
formate level in biofilm supernatant, mean ± SD (multi-species biofilms; substrate 1 M): 84 ± 9^∗ mg/L
lactate level in biofilm supernatant, mean ± SD (multi-species biofilms; substrate 1 M): 3791 ± 169^∗ mg/L
propionate level in biofilm supernatant, mean ± SD (multi-species biofilms; substrate 1 M): 1306 ± 175^∗ mg/L
acetate level in biofilm supernatant, mean ± SD (multi-species biofilms; [5]): 881 ± 73 mg/L
butyrate level in biofilm supernatant, mean ± SD (multi-species biofilms; [5]): 0 ± 0 mg/L
formate level in biofilm supernatant, mean ± SD (multi-species biofilms; [5]): 84 ± 9 mg/L
lactate level in biofilm supernatant, mean ± SD (multi-species biofilms; [5]): 3791 ± 169 mg/L
propionate level in biofilm supernatant, mean ± SD (multi-species biofilms; [5]): 1306 ± 175 mg/L
fold change in IL-1β gene expression, geometric mean (C.I.) [2, 6]: 0.89 (0.54-1.45) fold
fold change in IL-6 gene expression, geometric mean (C.I.) [2, 6]: 0.74 (0.56-0.97)^∗ fold
fold change in IL-8 gene expression, geometric mean (C.I.) [2, 6]: 1.13 (0.71-1.80) fold
fold change in MMP-8 gene expression, geometric mean (C.I.) [2, 6]: 0.70 (0.62-0.79) fold
fold change in TNF-α gene expression, geometric mean (C.I.) [2, 6]: 0.81 (0.50-1.33) fold
fold change in IL-1β gene expression, geometric mean (C.I.) [2, 7]: 0.5 (0.38-0.65)^∗ fold
fold change in IL-6 gene expression, geometric mean (C.I.) [2, 7]: 0.33 (0.12-0.88)^∗ fold
fold change in IL-8 gene expression, geometric mean (C.I.) [2, 7]: 0.03 (0.02-0.05)^∗ fold
fold change in MMP-8 gene expression, geometric mean (C.I.) [2, 7]: 0.78 (0.38-1.61) fold
fold change in TNF-α gene expression, geometric mean (C.I.) [2, 7]: 0.39 (0.23-0.66)^∗ fold
downregulation of IL-1β gene expression ([2]; substrate 1 M): 2 fold
downregulation of IL-6 gene expression ([2]; substrate 1 M): 3 fold
downregulation of TNF-α gene expression ([2]; substrate 1 M): 2.5 fold
